Measurements: patent US11744873B2, “Compositions and methods for the treatment of metabolic and liver disorders” (Viking Therapeutics, Inc., priority 2021, dated 2023)

Columns and labels:
[1] = molecular target: T1, GLP-1 receptor (Homo sapiens, UniProt P43220); test: TagLite binding assay, GLP-1 receptor; conditions: for % Binding avg at CMax: GLP-1 receptor
[2] = molecular target: T2, GIP receptor (Homo sapiens, UniProt P48546); test: TagLite binding assay, GIP receptor; conditions: for % Binding avg at CMax: GIP receptor
T2 sequence (P48546 22-466): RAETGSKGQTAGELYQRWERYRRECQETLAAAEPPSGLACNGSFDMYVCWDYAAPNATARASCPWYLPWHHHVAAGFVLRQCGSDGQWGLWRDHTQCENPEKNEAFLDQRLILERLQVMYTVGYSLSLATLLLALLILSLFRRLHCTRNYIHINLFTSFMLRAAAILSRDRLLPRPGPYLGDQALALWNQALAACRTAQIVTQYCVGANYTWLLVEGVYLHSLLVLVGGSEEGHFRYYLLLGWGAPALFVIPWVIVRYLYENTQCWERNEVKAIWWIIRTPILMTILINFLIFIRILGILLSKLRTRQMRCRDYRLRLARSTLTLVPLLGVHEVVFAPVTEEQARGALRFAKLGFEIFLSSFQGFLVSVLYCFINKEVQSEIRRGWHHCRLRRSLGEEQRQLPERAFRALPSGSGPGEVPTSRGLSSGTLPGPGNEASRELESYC

[3] = molecular target: T1, GLP-1 receptor; test: HSA modulated binding assay, GLP-1 receptor; conditions: for IC50: IC 50, GLP-1 receptor
[4] = molecular target: T2, GIP receptor; test: HSA modulated binding assay, GIP receptor; conditions: for % Binding avg at CMax: GIP receptor; for IC50: IC 50, GIP receptor
[5] = test system: mice fed Gubra amylin NASH (GAN) diet; test: Biological effects in GAN diet NASH mice; assay type: in vivo; conditions: after two weeks, 10 mg/kg group; for Gal-3 Total: liver Galectin-3, histological quantitative assessment; for TG Total: liver triglycerides, GAN diet NASH mice; for α-SMA Total: liver α-smooth muscle actin, histological quantitative assessment
Experimental: NASH was induced in mice by feeding mice a Gubra amylin NASH (GAN) diet as described in Boland et al. World J Gastroenterol. 2019, 25(33): 4904-4920. One week prior to administration of a first dose of compounds, the mice were weighed and randomized, and their food intake was measured. Mice were randomly assigned to dosing groups, with twelve mice per group. […] Compound dose titration (nmol/kg): 0.6 (day 0), 1.2 (day 1), 2.4 (day 2), 4.8 (day 3), 4.8 (day 4), 12 (day 5), 30.0 (from day 6).
After two weeks, animals were sacrificed. Plasma enzymes (P-ALT (alanine aminotransferase) and P-AST (aspartate aminotransferase)), total plasma triglycerides, and total plasma cholesterol were measured, and terminal necropsy of each liver was carried out, determining relative liver weight as a percentage of body weight, assaying total liver biochemistry including total liver triglycerides, plasma insulin and total liver cholesterol, as well as histological evaluation of Galectin-3, and alpha-smooth muscle actin.

[6] = Pharmacokinetics in monkeys, SC dosing; assay type: in vivo, cynomolgus monkeys; conditions: for half-life: cynomolgus monkey, in vivo, male cynomolgus monkeys, SC single dose 0.2 mg/kg, 0.1% bovine serum albumin in phosphate buffered saline, mean; for persistence in the blood stream as compared to tirzepatide: cynomolgus monkeys, SC 0.2 mg/kg
Experimental: (§1) Subcutaneous (SC) dosing of the compounds in a vehicle of 0.1% bovine serum albumin in phosphate buffered saline solution was performed with male cynomolgus monkeys. […] Samples were obtained at 1, 4, 8, 12, 24, 48, 72, 96, 120, 168, 192, 240 and 336 hours after the single dose was administered.

[7] = Pharmacokinetics studies of formulations, SC dosing; assay type: in vivo, cynomolgus monkeys; conditions: for half-life: cynomolgus monkey, in vivo, SC 0.2 mg/kg, mean
Experimental: as §1
Formulation 1 included the compound in a vehicle of 0.1% bovine serum albumin in phosphate buffered saline solution.

T1 sequence (P43220 24-463): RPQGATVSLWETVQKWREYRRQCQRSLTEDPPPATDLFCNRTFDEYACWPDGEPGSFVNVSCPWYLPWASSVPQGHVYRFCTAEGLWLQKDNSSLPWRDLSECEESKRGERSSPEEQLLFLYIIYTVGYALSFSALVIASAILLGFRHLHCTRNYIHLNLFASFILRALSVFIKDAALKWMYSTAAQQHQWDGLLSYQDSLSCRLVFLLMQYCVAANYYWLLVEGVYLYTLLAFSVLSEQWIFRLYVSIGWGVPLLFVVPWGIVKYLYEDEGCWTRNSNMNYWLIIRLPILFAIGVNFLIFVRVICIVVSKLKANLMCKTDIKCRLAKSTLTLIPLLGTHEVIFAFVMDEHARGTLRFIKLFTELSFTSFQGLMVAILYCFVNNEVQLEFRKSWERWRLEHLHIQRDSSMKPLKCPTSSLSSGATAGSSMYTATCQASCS

| Molecule | % Binding avg at CMax [1] | % Binding avg at CMax [2] | % Binding avg at CMax ([3]; GLP-1 receptor, 0% HSA) | % Binding avg at CMax ([3]; GLP-1 receptor, 2% HSA) | % Binding avg at CMax ([4]; 0% HSA) | % Binding avg at CMax ([4]; 2% HSA) | Gal-3 Total [5] | TG Total [5] | α-SMA Total [5] | half-life [6] | persistence in the blood stream as compared to tirzepatide [6] | further results |
| --- | --- | --- | --- | --- | --- | --- | --- | --- | --- | --- | --- | --- |
| tirzepatide [reference compound] | 0.20% | −1.21% | −0.14% | 33.01% | −3.05% | 10.07% | 138 ± 17 mg | 80 ± 11 mg per/ liver | 108 ± 22 mg |  |  | Ratio of HSA/No HSA ([3]; GLP-1 receptor, binding with 2% HSA to binding with 0% HSA): 12.8 |
| CC[C@H](C)[C@H](NC(=O)[C@H](CC(C)C)NC(=O)[C@H](Cc1c[nH]c2ccccc12)NC(=O)[C@H](CCC(N)=O)NC(=O)[C@@H](NC(=O)[C@H](Cc1ccccc1)NC(=O)[C@H](C)NC(=O)[C@H](CCCCNC(=O)COCCOCCNC(=O)COCCOCCNC(=O)CC[C@H](NC(=O)CCCCCCCCCCCCCCCCCCP(=O)(O)O)C(=O)O)NC(=O)[C@H](CCC(N)=O)NC(=O)[C@H](C)NC(=O)[C@@H](NC(=O)[C@H](CCCCN)NC(=O)[C@H](CC(=O)O)NC(=O)[C@H](CC(C)C)NC(=O)C(C)(C)NC(=O)[C@@H](NC(=O)[C@H](CO)NC(=O)[C@H](Cc1ccc(O)cc1)NC(=O)[C@H](CC(=O)O)NC(=O)[C@H](CO)NC(=O)[C@@H](NC(=O)[C@H](Cc1ccccc1)NC(=O)[C@@H](NC(=O)CNC(=O)[C@H](CCC(=O)O)NC(=O)C(C)(C)NC(=O)[C@@H](N)Cc1ccc(O)cc1)[C@@H](C)O)[C@@H](C)O)[C@@H](C)CC)[C@@H](C)CC)C(C)C)C(=O)N[C@@H](C)C(=O)NCC(=O)NCC(=O)N1CCC[C@H]1C(=O)N[C@@H](CO)C(=O)N[C@@H](CO)C(=O)NCC(=O)N[C@@H](C)C(=O)N1CCC[C@H]1C(=O)N1CCC[C@H]1C(=O)N1CCC[C@H]1C(=O)N[C@@H](CO)C(N)=O [Compound 4] |  |  |  |  |  |  | 137 ± 15 mg | 70 ± 5 mg per/ liver | 102 ± 10 mg | 118 h | significantly greater persistence | persistence in the blood stream as compared to tirzepatide in the identical formulation ([7]; Formulation 1 and Formulation 2): significantly greater persistence; half-life ([7]; Formulation 1 (0.1% bovine serum albumin in phosphate buffered saline)): 106 h; half-life ([7]; Formulation 2 (40% propylene glycol and 60% 10 mM pH 6 citrate buffer)): 120 h |
| CC[C@H](C)[C@H](NC(=O)[C@H](CC(C)C)NC(=O)[C@H](Cc1c[nH]c2ccccc12)NC(=O)[C@H](CCC(N)=O)NC(=O)[C@@H](NC(=O)[C@H](Cc1ccccc1)NC(=O)[C@H](C)NC(=O)[C@H](CCCCNC(=O)COCCOCCNC(=O)COCCOCCNC(=O)CC[C@H](NC(=O)CCCCCCCCCCCCCCCCCCC(=O)O)P(=O)(O)O)NC(=O)[C@H](CCC(N)=O)NC(=O)[C@H](C)NC(=O)[C@@H](NC(=O)[C@H](CCCCN)NC(=O)[C@H](CC(=O)O)NC(=O)[C@H](CC(C)C)NC(=O)C(C)(C)NC(=O)[C@@H](NC(=O)[C@H](CO)NC(=O)[C@H](Cc1ccc(O)cc1)NC(=O)[C@H](CC(=O)O)NC(=O)[C@H](CO)NC(=O)[C@@H](NC(=O)[C@H](Cc1ccccc1)NC(=O)[C@@H](NC(=O)CNC(=O)[C@H](CCC(=O)O)NC(=O)C(C)(C)NC(=O)[C@@H](N)Cc1ccc(O)cc1)[C@@H](C)O)[C@@H](C)O)[C@@H](C)CC)[C@@H](C)CC)C(C)C)C(=O)N[C@@H](C)C(=O)NCC(=O)NCC(=O)N1CCC[C@H]1C(=O)N[C@@H](CO)C(=O)N[C@@H](CO)C(=O)NCC(=O)N[C@@H](C)C(=O)N1CCC[C@H]1C(=O)N1CCC[C@H]1C(=O)N1CCC[C@H]1C(=O)N[C@@H](CO)C(N)=O [Compound 8] |  |  |  |  |  |  | 117 ± 12 mg | 75 ± 7 mg per/ liver | 83 ± 8 mg |  |  |  |
| CC[C@H](C)[C@H](NC(=O)[C@H](CC(C)C)NC(=O)[C@H](Cc1c[nH]c2ccccc12)NC(=O)[C@H](CCC(N)=O)NC(=O)[C@@H](NC(=O)[C@H](Cc1ccccc1)NC(=O)[C@H](C)NC(=O)[C@H](CCCCNC(=O)COCCOCCNC(=O)COCCOCCNC(=O)CC[C@H](NC(=O)CCCCCCCCCCCCCCCCCCP(=O)(O)O)P(=O)(O)O)NC(=O)[C@H](CCC(N)=O)NC(=O)[C@H](C)NC(=O)[C@@H](NC(=O)[C@H](CCCCN)NC(=O)[C@H](CC(=O)O)NC(=O)[C@H](CC(C)C)NC(=O)C(C)(C)NC(=O)[C@@H](NC(=O)[C@H](CO)NC(=O)[C@H](Cc1ccc(O)cc1)NC(=O)[C@H](CC(=O)O)NC(=O)[C@H](CO)NC(=O)[C@@H](NC(=O)[C@H](Cc1ccccc1)NC(=O)[C@@H](NC(=O)CNC(=O)[C@H](CCC(=O)O)NC(=O)C(C)(C)NC(=O)[C@@H](N)Cc1ccc(O)cc1)[C@@H](C)O)[C@@H](C)O)[C@@H](C)CC)[C@@H](C)CC)C(C)C)C(=O)N[C@@H](C)C(=O)NCC(=O)NCC(=O)N1CCC[C@H]1C(=O)N[C@@H](CO)C(=O)N[C@@H](CO)C(=O)NCC(=O)N[C@@H](C)C(=O)N1CCC[C@H]1C(=O)N1CCC[C@H]1C(=O)N1CCC[C@H]1C(=O)N[C@@H](CO)C(N)=O [Compound 12] | 0.09% | −1.47% | 0.22% | 12.04% | −3.33% | 5.52% |  |  |  | 104 h | significantly greater persistence | IC50 [1]: 129 nM; IC50 [2]: 137 nM; IC50 ([3]; 0% HSA): 145 nM; IC50 ([3]; 2% HSA): 763 nM; IC50 ([4]; 0% HSA): 256 nM; IC50 ([4]; 2% HSA): 436 nM |
